Measurements: patent US20030176511A1, “Compositions and methods for treating cardiovascular disorders” (priority 2000, published 2003)

How the values were obtained:
[1] = test system: tocopherol-mediated peroxidation (TMP); assay: Anti-TMP index; format: biochemical
α-tocopheroxyl radical = assay: Tocopheroxyl radical attenuating ability (TRAA); format: biochemical; settings: kobs in presence (+) or absence (−) of test compound
[2] = test system: atherosclerotic lesions in apoE−/− mice; assay: Atherosclerotic lesion cross-section areas (morphometry) in apoE−/− mice; format: in vivo; settings: lesion area of probucol group relative to controls
Method: Male C57BL/6J mice, homozygous for the disrupted apoE gene (apoE−/−) were fed standard chow (Lab-Feed, Sydney, Australia) until aged 10 weeks. […] The high fat diet (control and probucol-supplemented) was prepared, according to the specifications of the Harlan Teklad diet TD88137. […] After bleeding, mice were gravity-perfused for 5 min with DPBS containing 20 μM BHT and 1 mM EDTA (Buffer A) and aortas removed as described in Letters JM, et al (1999). Briefly, hearts, ascending and descending aortas (past the femoral junction) were excised and carefully cleaned. […] Once cleaned, aortas were separated from the heart taking care to include all aortic material while avoiding heart tissue. To obtain sufficient material for HPLC analysis (i.e., 30-40 mg wet weight tissue) it was necessary to pool 7-8 aortas. Separate pools of aortas were prepared for both groups and then immediately frozen in Buffer A and stored at −80° C. until analyses. Lesions were assessed at four different sites along the aorta, in the aortic root, in the aortic arch, the descending thoracic and in the proximal abdominal aorta, and cross-sections (2-3 μm thick) were prepared and stained with Weigert's hematoxylin-van Gieson.

[3] = test system: lipoprotein oxidation in the vessel wall; assay: Aortic lipids, oxidised lipids and antioxidants in apoE−/− mice (HPLC of aortic homogenates); format: in vivo
Method: Male C57BL/6J mice, homozygous for the disrupted apoE gene (apoE−/−) were fed standard chow (Lab-Feed, Sydney, Australia) until aged 10 weeks. […] After bleeding, mice were gravity-perfused for 5 min with DPBS containing 20 μM BHT and 1 mM EDTA (Buffer A) and aortas removed as described in Letters JM, et al (1999). Briefly, hearts, ascending and descending aortas (past the femoral junction) were excised and carefully cleaned. […] Once cleaned, aortas were separated from the heart taking care to include all aortic material while avoiding heart tissue. To obtain sufficient material for HPLC analysis (i.e., 30-40 mg wet weight tissue) it was necessary to pool 7-8 aortas. Separate pools of aortas were prepared for both groups and then immediately frozen in Buffer A and stored at −80° C. until analyses. Pooled aortas were snap frozen in liquid nitrogen, pulverised, resuspended in Buffer A, homogenised and then either treated with metaphosphoric acid (for ascorbate) or extracted and the hexane fraction analysed for lipid-soluble antioxidants, cholesterol (C), choleseteryl esters (CE), lipid hydroperoxides (LOOH) and cholesteryl ester hydroxides (CE-OH) by HPLC as described in Methods Enzymol. 1994;233:469489. LOOH and CE-OH were measured as markers of lipoprotein lipid oxidation, as they are the primary and major oxidation products formed when lipoproteins from apoE−/− mice undergo oxidation. […] All compounds were quantified by peak area comparison with authentic standards, and protein determined.

[4] = Plasma lipids and antioxidants in apoE−/− mice; format: in vivo
Method: Male C57BL/6J mice, homozygous for the disrupted apoE gene (apoE−/−) were fed standard chow (Lab-Feed, Sydney, Australia) until aged 10 weeks. […] Separate aliquots were acidified with metaphosphoric acid (5%) to stabilize vitamin C prior to freezing and storage at −80° C. The remainder was pooled appropriately and used for ex vivo oxidation initiated by the peroxyl radical generator AAPH and lipoprotein separation by FPLC with UV280nm detection, as described in J Lipid Res. 1 999;40:1104-1112. Lipid-soluble antioxidants and lipids were quantified by HPLC as described in FASEB J. 1999;13:667-675. For ascorbate analysis, frozen acidified samples were thawed, diluted with DPBS to adjust the pH to 7.4 and then immediately subjected to HPLC. Plasma triglycerides were determined enzymatically (Boehringer, Mannheim, Germany).

[5] = Lipids and antioxidants in plasma lipoprotein fractions (size exclusion FPLC) of apoE−/− mice; format: in vivo; settings: pooled plasma, 1% w/w probucol, 24 weeks
Method: Plasma was collected from individual mice, pooled, diluted 1:10 with buffer used for FPLC and 300 μL subjected to size exclusion chromatography. Chromatograms shown are representative of two analyses of independent pooled plasma samples. The horizontal bars indicate the corresponding fractions collected for each lipoprotein pool. Plasma was obtained from control and probucol mice and aliquots frozen for subsequent determination of lipids. Separate aliquots were acidified with metaphosphoric acid (5%) to stabilize vitamin C prior to freezing and storage at −80° C. The remainder was pooled appropriately and used for ex vivo oxidation initiated by the peroxyl radical generator AAPH and lipoprotein separation by FPLC with UV280nm detection, as described in J Lipid Res. 1 999;40:1104-1112. […] Two consecutive separations each employing 300 μL undiluted plasma were carried out. The corresponding eluents from both injections were collected, pooled according to fractions corresponding to very low-density lipoprotein (VLDL), LDL, and HDL plus mouse serum albumin (see FIG. 3) and then extracted and analysed for lipids and antioxidants.

plasma lipids = assay: Ex vivo AAPH-induced oxidation of plasma from apoE−/− mice; format: in vivo; settings: plasma from probucol-treated mice, 5 mM AAPH, 37° C.
Method: Pooled plasma obtained from control (open symbols) or probucol-treated (closed symbols) mice was exposed to 5 mM of the aqueous peroxyl radical generator AAPH and incubated under air at 37° C. […] Data shown are mean±SD of a single oxidation experiment performed in triplicate using pooled plasma. Where error bars are not shown, error is smaller than the symbol.
Plasma was obtained from control and probucol mice and aliquots frozen for subsequent determination of lipids. Separate aliquots were acidified with metaphosphoric acid (5%) to stabilize vitamin C prior to freezing and storage at −80° C. The remainder was pooled appropriately and used for ex vivo oxidation initiated by the peroxyl radical generator AAPH and lipoprotein separation by FPLC with UV280nm detection, as described in J Lipid Res. 1 999;40:1104-1112.
Enhanced resistance of plasma lipoproteins to oxidation is often used as a measure of antioxidant efficacy. Therefore, we examined AAPH-induced oxidation of pooled plasma from control and treated animals. […] These observations can be explained readily on the basis of tocopherol-mediated peroxidation.

[6] = test system: atherosclerosis/restenosis in ballooned New Zealand White rabbits; assay: Atherosclerosis/restenosis in cholesterol-fed, ballooned New Zealand White rabbits; format: in vivo; settings: 2% cholesterol diet with 1% probucol for 6 weeks
Method: Aortic endothelial denudation was performed at week 3 by withdrawing an inflated 3F Fogarty balloon embolectomy catheter three times down the length of the aorta. Plasma was obtained from animals as described in Example 1 at the start and end of the study. At the end of the study period, individual aortas were removed and prepared for HPLC analysis as in Example 1. Lipids and antioxidants including probucol and its metabolites, bisphenol and diphenoquinone, were analyzed by RP-HPLC as described previously. Aortas designated for histology were perfusion-fixed with 4% (v/v) formaldehyde and transferred into formalin. Cross-sections (2-3 μm thick) were prepared and stained with Weigert's hematoxylin-van Gieson, and the intima to media ratio determined for three sections.

[7] = test system: coronary restenosis after BA; settings: probucol given alone, compared to the placebo, MVP trial; cited from earlier work
[8] = test system: restenosis in rabbit abdominal aorta after arterial balloon injury; assay: Intimal thickening (intima and media ratio) in rabbit aorta after arterial balloon injury; format: in vivo; settings: rabbits, 0.02% PDA474 in chow for 9 weeks
Method: The intima and media ratio (IMR) was determined by tracing the intimal and medial areas, and dividing their respective total pixel numbers. Higher IMR indicate larger lesions. *Denotes a statistically significant difference with p<0.05.
PDA474 was synthesised and supplied in pure form (99%) by Polysciences, Inc. (400 Valley Road, Warrington, Pa. 18976, USA).
Twelve New Zealand White rabbits were fed a standard rabbit chow (100 g per day) with (n=6) or without (n=6) 0.02 weight % PDA474 (in dry powder form) for 9 weeks. The initial dosage was based on in vitro studies and other useful dosage amounts can be easily derived using a similar approach.
At the end of week 3, the abdominal aorta of all rabbits was injured by ABI. At the end of week 9, the infra-renal abdominal aorta was removed, fixed in 4% buffered formalin, embedded in paraffin, sectioned and stained with Verhoeff Hematoxylin. The intima and media ratio (IMR) was then determined by tracing the intimal and medial areas, and dividing their respective total pixel numbers. Higher IMR indicate larger lesions.

[9] = compared to controls, per protein

SMILES: Cc1cc(C(C)(C)C)c(O)c(C(C)(C)C)c1 [BHT]
- Anti-TMP index [1]: 8-10
- TRAA (decay of α-tocopheroxyl radical; kobs(+)/kobs(−)) (α-tocopheroxyl radical): Immediate decay

SMILES: CC(C)(Sc1cc(C(C)(C)C)c(O)c(C(C)(C)C)c1)Sc1cc(C(C)(C)C)c(O)c(C(C)(C)C)c1 [Probucol]
- Treatment effect, Abdominal Aorta [2]: 10%
- Treatment effect, Arch [2]: 44%
- Treatment effect, Descending Thoracic Aorta [2]: 15%
- drug metabolised to bisphenol or diphenoquinone, aorta ([3]; aorta): ~11%
- decrease of aortic concentration of C [3, 9]: 5.6 fold
- decrease of aortic concentration of total CoQ (ubiquinones plus ubiquinols) [3, 9]: 2.5 fold
- decrease of aortic concentration of vitamin E [3, 9]: 2.9 fold
- Plasma Triglyceride ([4]; apoE−/− mice, probucol-supplemented diet, 24 weeks): 0.4 ± 0.0 mM
- drug converted into bisphenol or diphenoquinone, plasma ([4]; plasma): ~8%
- increase of plasma ascorbate ([4]; plasma, probucol treated vs control mice): ~1.4 fold
- -TOH in HDL fraction ([5]; HDL plus mouse serum albumin): 1.4
- C20:4 in HDL fraction ([5]; HDL plus mouse serum albumin): 24.0
- C in HDL fraction ([5]; HDL plus mouse serum albumin): 0.12
- Total CoQ in HDL fraction ([5]; HDL plus mouse serum albumin): 0.1
- -TOH in LDL fraction ([5]; LDL): 7.8
- C20:4 in LDL fraction ([5]; LDL): 50.4
- C in LDL fraction ([5]; LDL): 0.96
- Total CoQ in LDL fraction ([5]; LDL): 0.4
- -TOH in VLDL fraction ([5]; VLDL): 0.56
- C18:2 in VLDL fraction ([5]; VLDL): 340
- Total CoQ in VLDL fraction ([5]; VLDL): 0.1
- probucol level during the oxidation period (plasma lipids): remained unchanged
- onset and initial rate of accumulation of CE-O(O)H (plasma lipids; vs control plasma): delayed and decreased respectively
- proportion of aortic lipids that was oxidized [6]: not affected
- atherosclerosis ([6]; aortic denudation at week 3): significantly decreased atherosclerosis
- content of plasma and aortic lipids, and absolute amounts of oxidized lipids ([6]; vs controls): significantly decreased
- reduction of angiographic lumen loss [7]: 68%
- reduction of need for repeat angioplasty at 6 months [7]: 58%
- reduction of restenosis rate per segment [7]: 47%

SMILES: CC(C)(C)c1cc(SSc2cc(C(C)(C)C)c(O)c(C(C)(C)C)c2)cc(C(C)(C)C)c1O [PDA474]
- lower IMR in drug-treated animals vs control [8]: 34%
- intima and media ratio (IMR) ([8]; ABI at end of week 3, mean±SEM, n=6): 0.76±0.13
